The test system of the test is Rats of OFA (SD) strain. Kind of test: Arthritis induced by Freund's adjuvant (Mycobacterium butyricum) in the rat. It counts as in vivo. As for the experimental part: We used the model of arthritis induced by Freund' adjuvant as described in the article of Milan et al., J Neurosci 1986; 6: 899-906. The rats are administered with Mycobacterium butyricum develop usually a severe polyarthritis which resembles to that in human. Rats of OFA (SD) strain (Oncins France Strain A) weighing approximately 200 g received an […] of a 10 mg/ml Mycobacterium butyricum solution at the articulation of the right ankle. For all the measured parameters, the rats were divided into 5 groups (8 rats/group) in the following way: • reference group: the rats received a paraffin injection instead of the solution of Mycobacterium butyricum (no induced arthritis) then receive an intraperitoneal injection of saline solution; • arthritic group+injection of saline solution; • arthritic group+intraperitoneal injection of 3 mg/kg indomethacin; the indomethacin being a NSAID classically used as reference in this kind of test; • arthritic group+intraperitoneal injection of […]; • arthritic group+intraperitoneal injection of […]. The products are administered 5 times per week during 3 weeks. At the beginning of the experimentation (day 0), one determines the initial values for the different parameters (volume of the leg, macroscopic clinical score, sedimentation test and hypersensitivity). During the experiment, several parameters are measured: • the volume of the leg (“paw latency duration”); • the globular sedimentation test (“Erythrocyte Sedimentation rate”); • the macroscopic score: • “0” means that no sign of arthritis was detected; • “1” means that a swelling or an inflammation was detected on a leg; • “2” means that a swelling or an inflammation was detected on two legs; • “3” means that a swelling or an inflammation was detected on at lest 3 legs; • “4” means that a swelling or an inflammation was detected on the 4 legs. • hypersensitivity according to the plantar test: carried out according to Yukinori Nagakura and al, Allodynia and hyperalgesia in adjuvant-induced arthritic rats: time course of progression and efficacy of analgesics, JPET 306: 490-497, 2003, or in Andersen M L and al “Evaluation of acute and chronic treatments with Harpagophytum procumbens one Freund's adjuvant-induced arthritis in rats”. J. Ethnopharmacol. 2004 April; 91 (2-3): 325-30; • the erythrocyte sedimentation rate (ESR): the increase in this one generally accompanies the clinical symptoms met in induced arthritis. The ESR is measured in the arthritic rats (at Day 21) 1 hour and 2 hours after the injection of PAT or indomethacin, according to the protocol of Mahajan S G, et al., Protective Effect of Ethanolic Extract of Seeds of Moringa will oleifera Lam. Against Inflammation Associated with Development of Arthritis in Rats. J. Immunotoxicol. 2007 January; 4 (1): 39-47.

As for `COc1ccc2c(c1)c(CC(=O)O)c(C)n2C(=O)c1ccc(Cl)cc1` [indomethacin], the “hypersensitivity measured by the plantar test” value (Day 16, PAT at the 2 doses, indomethacin, equivalent to the non-arthritic reference group, FIG. 6) is listed as “very reduced”. Besides, the “erythrocyte sedimentation rate (ESR)” value (arthritic rats, Day 21, FIG. 7) was “reduced in a very important way”. The clinical macroscopic score result (compared to arthritic rats which received saline solution, until Day 21, FIG. 5) is “significant reduction”. Besides, the “volume of the leg” value (during the first 12 days, PAT 0.4 and 4 μg/kg i.p., indomethacin 3 mg/kg i.p., 5 times per week, FIG. 4) is listed as “do not have a notable effect”. For the same compound, the “inflammation and volume of the leg” value (from Day 14 until Day 21, PAT 0.4 and 4 μg/kg i.p., indomethacin 3 mg/kg i.p., FIG. 4) is recorded as “notable reduction”.
